# Data published in publication PMC11372076, “A dual inhibitor of PIP5K1C and PIKfyve prevents SARS-CoV-2 entry into cells” (Experimental & Molecular Medicine, 2024).
# Columns and labels:
# PI4KB (PI4K beta) = experiment: SelectScreen Kinase Profiling Service (PIPK profiling); format: biochemical; conditions: 1 μM UNI418; [ATP] Km app
# Source text: (§1) UNI418 has a core structure consisting of 4-quinazolinamine (Fig. 1a, green), which is often found in kinase inhibitors. […] The phosphoinositide (PI) system is a crucial regulatory mechanism in membrane trafficking and is tightly regulated through phosphorylation cascades by multiple phosphatidylinositol phosphate kinases (PIPKs)[30]. We hypothesized that UNI418 may inhibit PIPK(s) and performed PIPK profiling analysis. […] To test whether UNI418 interacts with PIP5K1C and PIKfyve, we performed a CETSA, which determines the characteristics of protein stabilization upon ligand binding to the target protein[31]. UNI418- or DMSO-treated cell lysates were incubated at different temperatures, and the presence of the target protein in the soluble fraction was analyzed by Western blotting (Fig. 1c).
# (§2) Fig. 1 UNI418 specifically targets PIP5K1 and PIKfyve. a Chemical structure of UNI418. The 4-quinazolinamine core is highlighted in green. b Table of the kinase profiling analysis. Inhibition of several kinases was determined at a 1 μM concentration of UNI418 and analyzed by the SelectScreen Kinase Profiling Service (Thermo Fisher Scientific). c Cellular thermal shift assay. Ectopically expressed GFP-PIP5K1C and GFP-PIKfyve were heated to the indicated temperatures with/without UNI418, and the presence of protein in the soluble fraction was analyzed by Western blot analysis. TEXT PRINTED IN THE PICTURE: (b) UNI418: % Inhibition (mean): 11 ([ATP] Tested (μM): 10; Kinase Tested: PI4K2A (PI4K2 alpha)); % Inhibition (mean): 4 ([ATP] Tested (μM): 10; Kinase Tested: PI4K2B (PI4K2 beta)); % Inhibition (mean): -6 ([ATP] Tested (μM): 10; Kinase Tested: PI4KA (PI4K alpha)); % Inhibition (mean): 48 ([ATP] Tested (μM): Km app; Kinase Tested: PI4KB (PI4K beta)); % Inhibition (mean): 20 ([ATP] Tested (μM): 10; Kinase Tested: PIK3C2B (PI3K-C2 beta)); % Inhibition (mean): 22 ([ATP] Tested (μM): 10; Kinase Tested: PIK3C2G (PI3K-C2 gamma)); % Inhibition (mean): 4 ([ATP] Tested (μM): 100; Kinase Tested: PIK3C3 (hVPS34)); % Inhibition (mean): 8 ([ATP] Tested (μM): 10; Kinase Tested: PIK3CA/PIK3R3 (p110 alpha/p55 gamma)); % Inhibition (mean): 7 ([ATP] Tested (μM): 10; Kinase Tested: PIK3CB/PIK3R2 (p110 beta/p85 beta)); % Inhibition (mean): 9 ([ATP] Tested (μM): 10; Kinase Tested: PIP4K2A); % Inhibition (mean): 67 ([ATP] Tested (μM): 10; Kinase Tested: PIP5K1A); % Inhibition (mean): 93 ([ATP] Tested (μM): 10; Kinase Tested: PIP5K1B); % Inhibition (mean): 93 ([ATP] Tested (μM): 10; Kinase Tested: PIP5K1C); % Inhibition (mean): 100 ([ATP] Tested (μM): 100; Kinase Tested: PIKFYVE) | (b) Apilimod: % Inhibition (mean): 100 ([ATP] Tested (μM): 100; Kinase Tested: PIKFYVE) […]
# PIK3C2B (PI3K-C2 beta) = experiment: as above; format: biochemical; conditions: 1 μM UNI418; [ATP] 10 μM
# Source text: as §1, §2
# [1] = system: PIK3CB/PIK3R2 (p110 beta/p85 beta); experiment: as above; format: biochemical; conditions: 1 μM UNI418; [ATP] 10 μM
# Source text: as §1, §2
# PIP4K2A = experiment: as above; format: biochemical; conditions: 1 μM UNI418; [ATP] 10 μM
# Source text: as §1, §2
# [2] = system: SARS-CoV-2 spike protein (Spike-HexaPro); format: cell-based
smiles,measurement,setting,value
"c1ccc(-c2cc(Nc3nc(-c4ccncc4)nc4ccccc34)n[nH]2)cc1 [UNI418, N -(5-phenyl-1 H -pyrazol-3-yl)-2-(4-pyridinyl)-4-quinazolinamine]",% Inhibition (mean),PI4KB (PI4K beta),48%
same,% Inhibition (mean),PIK3C2B (PI3K-C2 beta),20%
same,% Inhibition (mean),[1],7%
same,% Inhibition (mean),PIP4K2A,9%
same,delay in generation of the mature Spike-HexaPro cleavage product,[2],3 h
